Results as given in the CheMixHub viscosity set.

Experiment: xn = mol fraction of the nth substance listed

Cl.N[C@@H](CS)C(=O)O.O + O
viscosity [mPa·s], 101 kPa
Settings	303.15 K	308.15 K	313.15 K	318.15 K	323.15 K
x1 = 0.01	0.8529	0.7892	0.7275	0.6712	0.6181
x1 = 0.0122	0.9644	–	0.795	–	0.6742
x1 = 0.02	1.126	1.023	0.9082	0.8248	0.769
x1 = 0.0272	1.2	–	0.9836	–	0.8276
x1 = 0.04	1.506	1.356	1.273	1.112	1.018
x1 = 0.0463	1.591	–	1.288	–	1.084
x1 = 0.0579	1.877	–	1.508	–	1.244
x1 = 0.0714	2.27	–	1.797	–	1.49
x1 = 0.08	2.486	2.237	1.968	1.785	1.594
x1 = 0.0871	2.805	–	2.191	–	1.711
x1 = 0.1	3.391	2.955	2.572	2.293	2.048
x1 = 0.1057	3.602	–	2.783	–	2.239
x1 = 0.11	3.97	3.387	2.951	2.575	2.336
x1 = 0.12	4.627	3.883	3.387	2.93	2.67
x1 = 0.1281	5.207	–	3.69	–	2.906
x1 = 0.13	5.349	4.451	3.878	3.35	3.052
x1 = 0.14	6.119	5.101	4.426	3.833	3.483
x1 = 0.15	6.915	5.842	5.027	4.408	3.963
x1 = 0.1558	7.415	–	5.463	–	4.309
x1 = 0.16	7.706	6.524	5.678	5.017	4.492
x1 = 0.17	8.459	7.218	6.372	5.719	5.066
x1 = 0.18	9.134	8.014	7.104	6.301	5.685
x1 = 0.19	9.972	8.826	7.864	7.002	6.342
x1 = 0.1903	9.687	–	7.875	–	6.354

CO + O
Settings	viscosity [mPa·s]
293.15 K, 100 kPa, x1 = 0.2	1.801
293.15 K, 100 kPa, x1 = 0.3	1.845
293.15 K, 100 kPa, x1 = 0.4	1.764
293.15 K, 101 kPa, x1 = 0.055	1.262
293.15 K, 101 kPa, x1 = 0.129	1.651
293.15 K, 101 kPa, x1 = 0.232	1.836
293.15 K, 101 kPa, x1 = 0.487	1.555
293.15 K, 101 kPa, x1 = 0.541	1.418
293.15 K, 101 kPa, x1 = 0.625	1.23
293.15 K, 101 kPa, x1 = 0.642	1.186
293.15 K, 101 kPa, x1 = 0.903	0.745
293.15 K, 101.3 kPa, x1 = 0.05886	1.276
293.15 K, 101.3 kPa, x1 = 0.05892	1.276
293.15 K, 101.3 kPa, x1 = 0.1014	1.465
293.15 K, 101.3 kPa, x1 = 0.1021	1.453
293.15 K, 101.3 kPa, x1 = 0.1493	1.628
293.15 K, 101.3 kPa, x1 = 0.1972	1.742
293.15 K, 101.3 kPa, x2 = 0.0969	0.743
293.15 K, 101.3 kPa, x2 = 0.2006	0.916
293.15 K, 101.3 kPa, x2 = 0.3002	1.105
293.15 K, 101.3 kPa, x2 = 0.4001	1.314
293.15 K, 101.3 kPa, x2 = 0.5	1.501
293.15 K, 101.3 kPa, x2 = 0.7	1.837
293.15 K, 101.3 kPa, x2 = 0.85	1.705
293.15 K, 101.3 kPa, x2 = 0.9	1.528
293.15 K, 101.3 kPa, x2 = 0.95	1.278
298.15 K, 101 kPa, x1 = 0.0519	1.129
298.15 K, 101 kPa, x1 = 0.0845	1.264
298.15 K, 101 kPa, x1 = 0.125	1.385
298.15 K, 101 kPa, x1 = 0.217	1.576
298.15 K, 101 kPa, x1 = 0.274	1.59
298.15 K, 101 kPa, x1 = 0.465	1.35
298.15 K, 101 kPa, x1 = 0.702	1.03
298.15 K, 101 kPa, x2 = 0.9413	1.1
298.15 K, 101.3 kPa, x1 = 0.1021	1.3
298.15 K, 101.3 kPa, x1 = 0.1233	1.392
298.15 K, 101.3 kPa, x1 = 0.2727	1.595
298.15 K, 101.3 kPa, x1 = 0.3599	1.534
298.15 K, 101.3 kPa, x1 = 0.4576	1.401
298.15 K, 101.3 kPa, x1 = 0.5675	1.218
298.15 K, 101.3 kPa, x1 = 0.6922	1.005
298.15 K, 101.3 kPa, x1 = 0.835	0.782
298.15 K, 101.3 kPa, x1 = 0.9144	0.659
298.15 K, 101.33 kPa, x1 = 0.03958	1.055
298.15 K, 101.33 kPa, x1 = 0.05923	1.157
298.15 K, 101.33 kPa, x1 = 0.1332	1.403
298.15 K, 101.33 kPa, x1 = 0.2396	1.6
298.15 K, 101.33 kPa, x1 = 0.2551	1.575
298.15 K, 101.33 kPa, x1 = 0.2785	1.57
298.15 K, 101.33 kPa, x1 = 0.3255	1.57
298.15 K, 101.33 kPa, x1 = 0.3558	1.532
298.15 K, 101.33 kPa, x1 = 0.3863	1.49
298.15 K, 101.33 kPa, x1 = 0.4426	1.427
298.15 K, 101.33 kPa, x1 = 0.4685	1.37
298.15 K, 101.33 kPa, x1 = 0.5278	1.282
298.15 K, 101.33 kPa, x1 = 0.6055	1.167
298.15 K, 101.33 kPa, x1 = 0.6583	1.105
303.15 K, 101 kPa, x1 = 0.055	0.978
303.15 K, 101 kPa, x1 = 0.129	1.245
303.15 K, 101 kPa, x1 = 0.176	1.313
303.15 K, 101 kPa, x1 = 0.256	1.37
303.15 K, 101 kPa, x1 = 0.487	1.218
303.15 K, 101 kPa, x1 = 0.541	1.126
303.15 K, 101 kPa, x1 = 0.642	0.974
303.15 K, 101 kPa, x1 = 0.903	0.63
303.15 K, 101.3 kPa, x1 = 0.0588	1.015
303.15 K, 101.3 kPa, x1 = 0.1233	1.206
303.15 K, 101.3 kPa, x1 = 0.2727	1.381
303.15 K, 101.3 kPa, x1 = 0.4576	1.239
303.15 K, 101.3 kPa, x1 = 0.5675	1.085
303.15 K, 101.3 kPa, x1 = 0.6922	0.907
303.15 K, 101.3 kPa, x1 = 0.835	0.714
303.15 K, 101.3 kPa, x1 = 0.9144	0.612
303.15 K, 101.3 kPa, x2 = 0.0969	0.634
303.15 K, 101.3 kPa, x2 = 0.1	0.618
303.15 K, 101.3 kPa, x2 = 0.2006	0.768
303.15 K, 101.3 kPa, x2 = 0.208	0.755
303.15 K, 101.3 kPa, x2 = 0.3002	0.906
303.15 K, 101.3 kPa, x2 = 0.3041	0.878
303.15 K, 101.3 kPa, x2 = 0.4001	1.062
303.15 K, 101.3 kPa, x2 = 0.5	1.177
303.15 K, 101.3 kPa, x2 = 0.5599	1.263
303.15 K, 101.3 kPa, x2 = 0.6148	1.306
303.15 K, 101.3 kPa, x2 = 0.7	1.39
303.15 K, 101.3 kPa, x2 = 0.7982	1.308
303.15 K, 101.3 kPa, x2 = 0.8	1.361
303.15 K, 101.3 kPa, x2 = 0.85	1.284
303.15 K, 101.3 kPa, x2 = 0.9043	1.108
303.15 K, 101.3 kPa, x2 = 0.95	0.999
303.15 K, 101.33 kPa, x2 = 0.1232	0.625
303.15 K, 101.33 kPa, x2 = 0.1599	0.679
303.15 K, 101.33 kPa, x2 = 0.2168	0.765
303.15 K, 101.33 kPa, x2 = 0.2992	0.874
303.15 K, 101.33 kPa, x2 = 0.3639	0.972
303.15 K, 101.33 kPa, x2 = 0.3948	1.021
303.15 K, 101.33 kPa, x2 = 0.4567	1.129
303.15 K, 101.33 kPa, x2 = 0.5837	1.31
303.15 K, 101.33 kPa, x2 = 0.8272	1.319
303.15 K, 101.33 kPa, x2 = 0.8782	1.213
303.15 K, 101.33 kPa, x2 = 0.886	1.185
303.15 K, 101.33 kPa, x2 = 0.9125	1.11
308.15 K, 101 kPa, x1 = 0.125	1.07
308.15 K, 101 kPa, x1 = 0.274	1.22
308.15 K, 101 kPa, x1 = 0.465	1.08
308.15 K, 101 kPa, x1 = 0.702	0.834
308.15 K, 101 kPa, x2 = 0.9413	0.9361
308.15 K, 101.3 kPa, x1 = 0.0588	0.894
308.15 K, 101.3 kPa, x1 = 0.1233	1.062
308.15 K, 101.3 kPa, x1 = 0.1943	1.172
308.15 K, 101.3 kPa, x1 = 0.2727	1.213
308.15 K, 101.3 kPa, x1 = 0.3599	1.18
313.15 K, 101 kPa, x1 = 0.055	0.78
313.15 K, 101 kPa, x1 = 0.129	0.974
313.15 K, 101 kPa, x1 = 0.176	1.021
313.15 K, 101 kPa, x1 = 0.232	1.078
313.15 K, 101 kPa, x1 = 0.256	1.067
313.15 K, 101 kPa, x1 = 0.487	0.973
313.15 K, 101 kPa, x1 = 0.541	0.911
313.15 K, 101 kPa, x1 = 0.625	0.815
313.15 K, 101 kPa, x1 = 0.642	0.807
313.15 K, 101 kPa, x1 = 0.903	0.545
313.15 K, 101.3 kPa, x2 = 0.0969	0.544
313.15 K, 101.3 kPa, x2 = 0.2006	0.643
313.15 K, 101.3 kPa, x2 = 0.3002	0.749
313.15 K, 101.3 kPa, x2 = 0.4001	0.861
313.15 K, 101.3 kPa, x2 = 0.5	0.945
313.15 K, 101.3 kPa, x2 = 0.6	1.022
313.15 K, 101.3 kPa, x2 = 0.7	1.091
313.15 K, 101.3 kPa, x2 = 0.8	1.054
313.15 K, 101.3 kPa, x2 = 0.85	0.995
313.15 K, 101.3 kPa, x2 = 0.9	0.907
313.15 K, 101.3 kPa, x2 = 0.95	0.788
318.15 K, 101 kPa, x1 = 0.125	0.832
318.15 K, 101 kPa, x1 = 0.274	0.952
318.15 K, 101 kPa, x1 = 0.465	0.868
318.15 K, 101 kPa, x1 = 0.702	0.69
318.15 K, 101 kPa, x2 = 0.9413	0.8181
323.15 K, 100 kPa, x1 = 0.2	0.832
323.15 K, 100 kPa, x1 = 0.3	0.86
323.15 K, 100 kPa, x1 = 0.4	0.848
323.15 K, 101 kPa, x1 = 0.055	0.64
323.15 K, 101 kPa, x1 = 0.129	0.785
323.15 K, 101 kPa, x1 = 0.176	0.818
323.15 K, 101 kPa, x1 = 0.232	0.857
323.15 K, 101 kPa, x1 = 0.256	0.849
323.15 K, 101 kPa, x1 = 0.487	0.796
323.15 K, 101 kPa, x1 = 0.541	0.746
323.15 K, 101 kPa, x1 = 0.625	0.678
323.15 K, 101 kPa, x1 = 0.642	0.673
323.15 K, 101 kPa, x1 = 0.903	0.475
323.15 K, 101.3 kPa, x1 = 0.9144	0.458
323.15 K, 101.3 kPa, x2 = 0.0969	0.47
323.15 K, 101.3 kPa, x2 = 0.2006	0.547
323.15 K, 101.3 kPa, x2 = 0.3002	0.628
323.15 K, 101.3 kPa, x2 = 0.4001	0.71
323.15 K, 101.3 kPa, x2 = 0.5	0.774
323.15 K, 101.3 kPa, x2 = 0.6	0.826
323.15 K, 101.3 kPa, x2 = 0.7	0.86
323.15 K, 101.3 kPa, x2 = 0.8	0.84
323.15 K, 101.3 kPa, x2 = 0.85	0.796
323.15 K, 101.3 kPa, x2 = 0.95	0.647
